This is an account of results in US9656990B2, “Cathepsin cysteine protease inhibitors” (Merck Sharp & Dohme Corp., priority 2014, dated 2017).

The target of assay [1] is T1, human cathepsin F (Homo sapiens, UniProt Q9UBX1).
T1 sequence (Q9UBX1 271-484): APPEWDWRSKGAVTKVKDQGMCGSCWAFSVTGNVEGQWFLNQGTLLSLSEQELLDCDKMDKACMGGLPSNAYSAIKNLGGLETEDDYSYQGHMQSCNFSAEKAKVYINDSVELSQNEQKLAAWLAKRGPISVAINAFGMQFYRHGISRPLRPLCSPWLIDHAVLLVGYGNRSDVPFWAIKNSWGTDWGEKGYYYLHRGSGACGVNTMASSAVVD
As to the kind of experiment: Cathepsin F Assay. The format is biochemical. Particulars: IP from dose response curve; Z-Phe-Arg-AMC substrate, pH 5.5; read-out: hCat F (IP (nM)). Summed up:
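Human cathepsin F (10 nM) preincubated 15 min at room temperature with compounds in 50 mM MES pH 5.5, 2.5 mM EDTA, 2.5 mM DTT, 10% DMSO. Z-Phe-Arg-AMC (8 μM) added; AMC release read by fluorescence (Ex 360/Em 460 nm) over 20 min, inhibition fit to dose-response model.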

For assay [2], the target named is human cathepsin K (UniProt P43236, Y175D/V274L, species not given). As to the kind of experiment: Cathepsin K Assay. The class given is biochemical. To be noted: IP from dose response curve; Z-Leu-Arg-AMC substrate, pH 5.5; read-out: hrbCat K (IP (nM)).

For `CNC(=O)N1CC(c2ccc(-c3cn(-c4ccc(F)cc4)nc3[C@@H]3CCCC[C@H]3C(=O)NC3(C#N)CC3)cc2)C1` [Example 135, 3-(4-(3-((1R,2R)-2-((1-cyanocyclopropyl)carbamoyl)cyclohexyl)-1-(4-fluorophenyl)-1H-pyrazol-4-yl)phenyl)-N-methylazetidine-1-carboxamide], the results for the IC50 in assay [1] and in assay [2] were 64 nM and 0.71 nM, respectively.
In the same order, the values of `N#CC1(NC(=O)[C@@H]2CCCC[C@H]2c2nn(-c3ccc(F)cc3)cc2-c2ccc(C3CN(C(=O)NCC(F)(F)F)C3)cc2)CC1` [Example 136, 3-(4-(3-((1R,2R)-2-((1-cyanocyclopropyl)carbamoyl)cyclohexyl)-1-(4-fluorophenyl)-1H-pyrazol-4-yl)phenyl)-N-(2,2,2-trifluoroethyl)azetidine-1-carboxamide] are 83 nM and 0.97 nM.
The matching figures for `N#CC1(NC(=O)[C@@H]2CCCC[C@H]2c2nn(-c3ccc4[nH]ccc4c3)cc2-c2ccc(N3CCS(=O)(=O)CC3)cc2)CC1` [Example 137, (1R,2R)-N-(1-cyanocyclopropyl)-2-(4-(4-(1,1-dioxidothiomorpholino)phen-yl)-1-(1H-indol-5-yl)-1H-pyrazol-3-yl)cyclohexanecarboxamide]: 2830 nM and 8.43 nM.
The matching figures for `CCN=S1(=O)CCN(c2ccc(-c3cn(-c4ccc(F)cc4)nc3[C@@H]3CCCC[C@H]3C(=O)NC3(C#N)CC3)cc2)CC1` [Example 138, (1R,2R)-N-(1-cyanocyclopropyl)-2-(4-(4-(1-(ethylimino)-1-oxidothiomorpholino)phenyl)-1-(4-fluorophenyl)-1H-pyrazol-3-yl)cyclohexanecarboxamide]: 725 nM and 1.62 nM.
For `Cc1c(-c2ccc(N3CCS(=O)(=O)CC3)cc2)c([C@@H]2CCCC[C@H]2C(=O)NC2(C#N)CC2)nn1-c1ccc(F)cc1` [Example 139, (1R,2R)-N-(1-cyanocyclopropyl)-2-(4-(4-(1,1-dioxidothiomorpholino)phen-yl)-1-(4-fluorophenyl)-5-methyl-1H-pyrazol-3-yl)cyclohexanecarboxamide], the IC50 turned out to be 649 nM in assay [1] and 7.48 nM in assay [2].
The matching figures for `CC(C)N=S1(=O)CCN(c2ccc(-c3cn(-c4ccc(F)cc4)nc3[C@@H]3CCCC[C@H]3C(=O)NC3(C#N)CC3)cc2)CC1` [Example 140, (1R,2R)-N-(1-cyanocyclopropyl)-2-(1-(4-fluorophenyl)-4-(4-(1-(isopropylimino)-1-oxidothiomorpholino)phenyl)-1H-pyrazol-3-yl)cyclohexanecarboxamide]: 782 nM and 1.29 nM.
The matching figures for `N#CC1(NC(=O)[C@@H]2CCCC[C@H]2c2nn(-c3ccc(F)cc3)cc2-c2ccc(N3CCS(=O)(=NCC(F)(F)F)CC3)cc2)CC1` [Example 141, (1R,2R)-N-(1-cyanocyclopropyl)-2-(1-(4-fluorophenyl)-4-(4-(1-oxido-1-((2,2,2-trifluoroethyl)imino)thio-morpholino)phenyl)-1H-pyrazol-3-yl)cyclohexanecarboxamide]: 816 nM and 2.1 nM.
As to `N#CC1(NC(=O)[C@@H]2CCCC[C@H]2c2nn(-c3ccccn3)cc2-c2ccc(N3CCS(=O)(=O)CC3)cc2)CC1` [Example 142, (1R,2R)-N-(1-cyanocyclopropyl)-2-(4-(4-(1,1-dioxidothiomorpholino)phen-yl)-1-(pyridin-2-yl)-1H-pyrazol-3-yl)cyclohexanecarboxamide], the IC50 amounted to 232 nM in assay [1] and 0.52 nM in assay [2].
The matching figures for `N#CC1(NC(=O)[C@@H]2CCCC[C@H]2c2nn(-c3ccc(C(F)(F)F)cn3)cc2-c2ccc(N3CCS(=O)(=O)CC3)cc2)CC1` [Example 143, (1R,2R)-N-(1-cyanocyclopropyl)-2-(4-(4-(1,1-dioxidothiomorpholino)phen-yl)-1-(5-(trifluoromethyl)pyridin-2-yl)-1H-pyrazol-3-yl)cyclohexanecarboxamide]: 395 nM and 1.17 nM.
In the same order, the values of `N#CC1(NC(=O)[C@@H]2CCCC[C@H]2c2nn(-c3ncccc3F)cc2-c2ccc(N3CCS(=O)(=O)CC3)cc2)CC1` [Example 144, (1R,2R)-N-(1-cyanocyclopropyl)-2-(4-(4-(1,1-dioxidothiomorpholino)phen-yl)-1-(3-fluoropyridin-2-yl)-1H-pyrazol-3-yl)cyclohexanecarboxamide] are 3060 nM and 5.59 nM.
In the same order, the values of `N#CC1(NC(=O)[C@@H]2CCCC[C@H]2c2nn(-c3ccc(F)cn3)cc2-c2ccc(N3CCS(=O)(=O)CC3)cc2)CC1` [Example 145, (1R,2R)-N-(1-cyanocyclopropyl)-2-(4-(4-(1,1-dioxidothiomorpholino)phen-yl)-1-(5-fluoropyridin-2-yl)-1H-pyrazol-3-yl)cyclohexanecarboxamide] are 481 nM and 1.24 nM.
As to `N#CC1(NC(=O)[C@@H]2CCCC[C@H]2c2nn(-c3ccc(Cl)cn3)cc2-c2ccc(N3CCS(=O)(=O)CC3)cc2)CC1` [Example 146, (1R,2R)-2-(1-(5-chloropyridin-2-yl)-4-(4-(1,1-dioxidothiomorpholino)phen-yl)-1H-pyrazol-3-yl)-N-(1-cyanocyclopropyl)cyclohex-anecarboxamide], the values for the IC50 in assay [1] and in assay [2] were 272 nM and 1.15 nM, respectively.
In the same order, the values of `N#CC1(NC(=O)[C@@H]2CCCC[C@H]2c2nn(-c3ncc(F)cc3Cl)cc2-c2ccc(N3CCS(=O)(=O)CC3)cc2)CC1` [Example 147, (1R,2R)-2-(1-(3-chloro-5-fluoropyridin-2-yl)-4-(4-(1,1-dioxidothiomorpholino)phen-yl)-1H-pyrazol-3-yl)-N-(1-cyanocyclopropyl)cyclohex-anecarboxamide] are 1190 nM and 3.26 nM.
In the same order, the values of `N#CC1(NC(=O)[C@@H]2CCCC[C@H]2c2nn(-c3ncc(F)cc3F)cc2-c2ccc(N3CCS(=O)(=O)CC3)cc2)CC1` [Example 148, (1R,2R)-N-(1-cyanocyclopropyl)-2-(1-(3,5-difluoropyridin-2-yl)-4-(4-(1,1-dioxidothiomorpholino)phen-yl)-1H-pyrazol-3-yl)cyclohexanecarboxamide] are 502 nM and 1.01 nM.
In the same order, the values of `CN=S1(=O)CCN(c2ccc(-c3cn(-c4ccc(F)cn4)nc3[C@@H]3CCCC[C@H]3C(=O)NC3(C#N)CC3)cc2)CC1` [Example 156, (1R,2R)-N-(1-cyanocyclopropyl)-2-(1-(5-fluoropyridin-2-yl)-4-(4-(1-(methylimino)-1-oxidothiomorpholino)phenyl)-1H-pyrazol-3-yl)cyclohexanecarboxamide] are 945 nM and 1.47 nM.
On to `Cc1c(-c2ccc(N3CCS(=O)(=O)CC3)cc2)c([C@@H]2CCCC[C@H]2C(=O)NC2(C#N)CC2)nn1-c1ccc(F)cn1` [Example 157, (1R,2R)-N-(1-cyanocyclopropyl)-2-(4-(4-(1,1-dioxidothiomorpholino)phen-yl)-1-(5-fluoropyridin-2-yl)-5-methyl-1H-pyrazol-3-yl)cyclohexanecarboxamide], for which the IC50 is 2980 nM in assay [1] and 4.26 nM in assay [2].
Regarding `CN=S1(=O)CCN(c2ccc(-c3cn(-c4ccc(F)cn4)nc3[C@@H]3CC[C@H](F)C[C@H]3C(=O)NC3(C#N)CC3)cc2)CC1` [Example 159, (1R,2R,5S)-N-(1-cyanocyclopropyl)-5-fluoro-2-(1-(5-fluoropyridin-2-yl)-4-(4-(1-(methylimino)-1-oxidothiomorpholino)phenyl)-1H-pyrazol-3-yl)cyclohexanecarboxamide], the IC50 in assay [1] is 1410 nM; in assay [2] it was 3.22 nM.
On to `N#CC1(NC(=O)[C@@H]2CCCC[C@H]2c2nn(-c3cccnn3)cc2-c2ccc(N3CCS(=O)(=O)CC3)cc2)CC1` [Example 161, (1R,2R)-N-(1-cyanocyclopropyl)-2-(4-(4-(1,1-dioxidothiomorpholino)phen-yl)-1-(pyridazin-3-yl)-1H-pyrazol-3-yl)cyclohexanecarboxamide], for which the IC50 in assay [1] is 751 nM; in assay [2], 1.61 nM.
The matching figures for `COc1ccc(-n2cc(-c3ccc(N4CCS(=O)(=O)CC4)cc3)c([C@@H]3CCCC[C@H]3C(=O)NC3(C#N)CC3)n2)nn1` [Example 162, (1R,2R)-N-(1-cyanocyclopropyl)-2-(4-(4-(1,1-dioxidothiomorpholino)phen-yl)-1-(6-methoxypyridazin-3-yl)-1H-pyrazol-3-yl)cyclohexanecarboxamide]: 654 nM and 0.84 nM.
`N#CC1(NC(=O)[C@@H]2CCCC[C@H]2c2nn(-c3ccncc3)cc2-c2ccc(N3CCS(=O)(=O)CC3)cc2)CC1` [Example 163, (1R,2R)-N-(1-cyanocyclopropyl)-2-(4-(4-(1,1-dioxidothiomorpholino)phen-yl)-1-(pyridin-4-yl)-1H-pyrazol-3-yl)cyclohexanecarboxamide]: the IC50 in assay [1] was found to be 237 nM; in assay [2], 0.32 nM.
In the same order, the values of `N#CC1(NC(=O)[C@@H]2CCCC[C@H]2c2nn(-c3cccnc3)cc2-c2ccc(N3CCS(=O)(=O)CC3)cc2)CC1` [Example 164, (1R,2R)-N-(1-cyanocyclopropyl)-2-(4-(4-(1,1-dioxidothiomorpholino)phen-yl)-1-(pyridin-3-yl)-1H-pyrazol-3-yl)cyclohexanecarboxamide] are 697 nM and 0.48 nM.
